Earlier results in patent US10806744B2, “Edible composition” (Conopco, Inc., priority 2015, dated 2020).

Target: T1, SGLT1 (Homo sapiens, UniProt P13866)
T1 sequence (P13866 1-664): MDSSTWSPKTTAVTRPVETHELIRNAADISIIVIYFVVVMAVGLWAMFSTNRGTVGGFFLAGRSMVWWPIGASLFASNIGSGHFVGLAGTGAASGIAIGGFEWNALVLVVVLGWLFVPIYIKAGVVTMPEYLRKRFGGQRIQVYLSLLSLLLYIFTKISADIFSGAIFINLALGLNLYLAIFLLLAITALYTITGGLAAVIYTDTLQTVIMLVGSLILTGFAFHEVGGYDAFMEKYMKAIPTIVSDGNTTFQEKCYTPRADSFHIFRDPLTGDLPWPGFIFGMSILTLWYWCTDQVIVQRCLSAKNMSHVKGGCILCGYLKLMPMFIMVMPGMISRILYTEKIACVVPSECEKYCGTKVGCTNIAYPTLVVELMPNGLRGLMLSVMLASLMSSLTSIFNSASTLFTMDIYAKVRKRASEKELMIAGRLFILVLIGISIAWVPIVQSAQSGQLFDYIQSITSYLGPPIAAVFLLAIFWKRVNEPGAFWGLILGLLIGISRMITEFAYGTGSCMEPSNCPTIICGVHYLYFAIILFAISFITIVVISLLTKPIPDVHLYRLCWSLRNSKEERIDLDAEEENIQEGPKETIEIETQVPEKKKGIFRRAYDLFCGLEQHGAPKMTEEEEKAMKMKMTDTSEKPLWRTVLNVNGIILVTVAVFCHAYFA
Settings: as disclosed in Table 1 of WO 2014/086632; cited from earlier work

| SMILES | SGLT1 inhibitory activity |
| --- | --- |
| O=c1c(-c2ccc(O)cc2)coc2cc(O[C@@H]3O[C@H](CO)[C@@H](O)[C@H](O)[C@H]3O)ccc12 [daidzein-7-glucoside] | SGLT1 inhibitors |
| O=c1c(O)c(-c2ccc(O)cc2)oc2cc(O[C@@H]3O[C@H](CO)[C@@H](O)[C@H](O)[C@H]3O)cc(O)c12 [kaempferol-7-glucoside] | SGLT1 inhibitors |
| COc1cc(-c2[o+]c3cc(O)cc(O)c3cc2O[C@@H]2O[C@H](CO)[C@@H](O)[C@H](O)[C@H]2O)cc(OC)c1O [malvidin-3-O-glucoside] | SGLT1 inhibitors |
| O=C1CC(c2ccc(O)c(O)c2)Oc2cc(O[C@@H]3O[C@H](CO)[C@@H](O)[C@H](O)[C@H]3O)cc(O)c21 (stereo partly drawn) [eriodictiol-7-glucoside] | SGLT1 inhibitors |
| OC[C@H]1O[C@@H](Oc2cc3c(O)cc(O)cc3[o+]c2-c2ccc(O)cc2)[C@H](O)[C@@H](O)[C@@H]1O [pelargonidin-3-glucoside] | SGLT1 inhibitors |
| O=c1c(O)c(-c2ccc(O[C@@H]3O[C@H](CO)[C@@H](O)[C@H](O)[C@H]3O)c(O)c2)oc2cc(O)cc(O)c12 [quercetin-4-glucoside] | SGLT1 inhibitors |
| O=c1cc(-c2ccc(O)cc2)oc2cc(OC3O[C@H](CO)[C@@H](O)[C@H](O)[C@H]3O)cc(O)c12 (stereo partly drawn) [apigenin-7-glucoside] | SGLT1 inhibitors |
| OC[C@H]1O[C@@H](Oc2ccc(O)cc2)[C@H](O)[C@@H](O)[C@@H]1O [arbutin] | lack of SGLT1 inhibitory activity |
| O=c1c(O[C@@H]2O[C@H](CO)[C@@H](O)[C@H](O)[C@H]2O)c(-c2ccc(O[C@@H]3O[C@H](CO)[C@@H](O)[C@H](O)[C@H]3O)c(O)c2)oc2cc(O)cc(O)c12 [quercetin-3,4′-diglucoside] | destroys this inhibitory action |
| O=c1c(O[C@@H]2O[C@H](CO)[C@@H](O)[C@H](O)[C@H]2O)c(-c2ccc(O)c(O)c2)oc2cc(O)cc(O)c12 [quercetin-3-glucoside] | SGLT1 inhibitors |
| OC[C@H]1O[C@@H](Oc2cc3c(O)cc(O)cc3[o+]c2-c2cc(O)c(O)c(O)c2)[C@H](O)[C@@H](O)[C@@H]1O [delphinidin-3-glucoside] | SGLT1 inhibitors |
| COc1cc(-c2[o+]c3cc(O)cc(O)c3cc2O[C@@H]2O[C@H](CO)[C@H](O)[C@H](O)[C@H]2O)cc(OC)c1O [malvidin-3-O-galactoside] | absence of SGLT1 inhibitory activity |
| C[C@@H]1O[C@@H](OC[C@H]2O[C@@H](Oc3cc4c(O)cc(O)cc4[o+]c3-c3ccc(O)c(O)c3)[C@H](O)[C@@H](O)[C@@H]2O)[C@H](O)[C@H](O)[C@H]1O [cyanidin-3-rutinoside] | absence of SGLT1 inhibitory activity |
| O=c1c(-c2ccc(O)cc2)coc2c([C@@H]3O[C@H](CO)[C@@H](O)[C@H](O)[C@H]3O)c(O)ccc12 [daidzein-8-C-glucoside] | SGLT1 inhibitors |
| OC[C@H]1O[C@@H](Oc2cc3c(O)cc(O)cc3[o+]c2-c2ccc(O)c(O)c2)[C@H](O)[C@@H](O)[C@@H]1O [cyanidin-3-glucoside] | SGLT1 inhibitors |
